# Where no end group is shown, it is not given here.
# Key:
# [1] = tested on: D-TNFR-1 CRD2; assay: Mirror-image phage display against D-TNFR-1 CRD2; assay type: binding; settings: after three rounds of biopanning, D-TNFR-1 CRD2 3 μg on streptavidin/neutravidin beads
# From the text: The receptor mimic was subjected to mirror-image molecular screening as a means of seeking ligands that inhibit TNF-α binding. […] A D-peptide inhibitor could be potentially tested as a candidate against TNFR-1-related inflammatory diseases localized in the protease-rich gastrointestinal tract.[10b],[20] Consequently, the D-TNFR-1 CRD2 serves as a receptor mimic in mirror-image phage display (MIPD), a molecular screening technique that exploits the concept of reflection symmetry for the discovery of peptide ligands in opposite chirality.[5b] To conduct the experiment, D-TNFR-1 CRD2 was biotinylated at the C-terminus, immobilized onto streptavidin-coated beads, and subjected to phage display. Subsequently, bacteriophage libraries[21] consisted of the sequence format CX9C where X could be any canonical amino acid and terminal cysteine residues used for cyclization were tested. […] This was confirmed by an additional phage display experiment, in which the WLG motif was fixed in the format CX4WLGX2C.
# The peptides were linked to the gene-3 coat protein (pIII) via a trialanine (Ala-Ala-Ala) spacer. Gel purified DNA encoding the libraries were ligated into the pCantab 5E phagemid vector, and transformed into chemically competent E. coli TG1. 20-fold excess of helper phage M13KO7 was used during rescue and amplification of the bacteriophages. […]
# [2] = tested on: D-TNFR-1 CRD2; assay: GCI (RAPID, repeated analyte pulses of increasing duration) of TCPB-E isomers on D-TNFR-1 CRD2; assay type: binding; settings: fixed concentration of each conformer, D-TNFR-1 CRD2, blank subtracted
# Experimental: (§1) Grating-coupled interferometry (GCI) experiments were performed on a Creoptix WAVEsystem using 4PCH-STA WAVE sensor chips (polycarboxylate surface, streptavidin coated) or 4PCH WAVE sensor chips (polycarboxylate surface) as indicated. Chips were first conditioned with borate buffer (0.1 M sodium borate, pH 9, 1 M Sodium chloride).
# S4. Identification of active binding peptide conformer
# Figure S4.1: Six possible conformers of TCPB, oxidized with either glutathione (TCPB-E-G) or cysteine […]
# TCPB solution phase oxidation […]
# form. In a 10 mL round bottomed flask, the peptide (50 μM) was dissolved in 5 mL of buffer (0.1 M phosphate, pH 6) containing 0.5 mM of either cystine or glutathione. The reaction mixtures were stirred for six hours at room temperature. Reaction completion was confirmed by LCMS, by taking 10 μL of reaction mixture and diluting with 90 μL of distilled water. The two disulfide bonded products for each cysteine and glutathione mixture were isolated by semi-preparative HPLC.
# (§2) (1 picture or pasted object on this page, not shown here)
# Figure S4.6: LCMS disulfide bond mapping of isolated TCPB-E peak i, oxidized with glutathione disulfide.
# Lyophilized peptide was digested with chymotypsin (0.1 mg/mL) in phosphate buffer ( 0.1 M, pH 6) at room temperature for 12 hours. […]
# [3] = tested on: D-TNFR-1 CRD2; assay: GCI single-cycle binding of TCPB-E-C1 and -C4 isomers to D-TNFR-1 CRD2; settings: single cycle of association and dissociation, 50 μM of each peptide conformer, blank subtracted
# Experimental: as §1
# Figure S4.10: Grating-coupled interferometry (GCI) analysis of TCPB-E-C1 and -C4 isomers binding to
# D-TNFR-1 CRD2. A single cycle of association and dissociation were passed over the sensor surface, with
# μM of each peptide conformer. Sensograms shown are blank subtracted (target flow cell - flow cell with 50
# TCPB-E-C4. The TCPB-E-C1 conformer was thus identified as the active form of the TCPB peptide.
# as §2
sequence,measurement,setting,value
CFHCIWLGDEC,"phage display selection outcome, experiment 2",[1]; CX4WLGX2C library,most abundant peptide sequence
"CFHCIWLGDEC (disulfide (positions not given here)) [TCPB, intramolecular disulfide bond between residues 4–11, cysteinylated at position 1]",sensor response with respect to concentration among TCPB-E isomers,[2],highest sensor response
same,sensor response/binding of TCPB-E isomers to D-TNFR-1 CRD2,[3],highest sensor response
CFHCVWLGMEC,"phage display selection outcome, experiment 1",[1]; CX9C library,enriched

# Source: publication PMC10885103, “Deciphering the Synthetic and Refolding Strategy of a Cysteine-Rich Domain in the Tumor Necrosis Factor Receptor (TNF-R) for Racemic Crystallography Analysis and D-Peptide Ligand Discovery” (ACS Bio & Med Chem Au, 2023)
